Source: ChEMBL document CHEMBL3045944, “Synthesis and antibacterial evaluation of series of novel tri-substituted-s-triazine derivatives” (Med Chem Res, 2011)
Values after ≈ are worked out from the molar mass of the structure shown.

Experiments:
Escherichia coli = assay: Antibacterial activity against Escherichia coli NCIM 2065 after 24 hr by broth dilution method; assay type: functional; details: NCIM 2065, 24 h
[1] = Solubility of the compound in benzene; assay type: physicochemical
Staphylococcus aureus = assay: Antibacterial activity against Staphylococcus aureus NCIM 2079 after 24 hr by broth dilution method; assay type: functional; details: NCIM 2079, 24 h
[2] = Solubility of the compound in ethanol; assay type: physicochemical
[3] = Solubility of the compound in dilute acids; assay type: physicochemical
[4] = Solubility of the compound in DMF; assay type: physicochemical
[5] = Solubility of the compound in ethyl acetate; assay type: physicochemical
Bacillus subtilis = assay: Antibacterial activity against Bacillus subtilis NCIM 2063 after 24 hr by broth dilution method; assay type: functional; details: NCIM 2063, 24 h
[6] = Solubility of the compound in water; assay type: physicochemical
[7] = Solubility of the compound in DMSO; assay type: physicochemical
Pseudomonas aeruginosa = assay: Antibacterial activity against Pseudomonas aeruginosa NCIM 2036 after 24 hr by broth dilution method; assay type: functional; details: NCIM 2036, 24 h
Bacillus cereus = assay: Antibacterial activity against Bacillus cereus NCIM 2156 after 24 hr by broth dilution method; assay type: functional; details: NCIM 2156, 24 h
[8] = Solubility of the compound in chloroform; assay type: physicochemical
Klebsiella pneumoniae = assay: Antibacterial activity against Klebsiella pneumoniae NCIM 2706 after 24 hr by broth dilution method; assay type: functional; details: NCIM 2706, 24 h
[9] = Solubility of the compound in acetic acid; assay type: physicochemical

| SMILES | MIC (Escherichia coli) | solubility [1] | MIC (Staphylococcus aureus) | solubility [2] | solubility [3] | solubility [4] | solubility [5] | MIC (Bacillus subtilis) | solubility [6] | solubility [7] | MIC (Pseudomonas aeruginosa) | MIC (Bacillus cereus) | solubility [8] | MIC (Klebsiella pneumoniae) | solubility [9] |
| --- | --- | --- | --- | --- | --- | --- | --- | --- | --- | --- | --- | --- | --- | --- | --- |
| O=[N+]([O-])c1ccc(-c2csc(Nc3nc(Nc4ccc(F)c(Cl)c4)nc(Nc4ccc(F)c(Cl)c4)n3)n2)cc1 | 12.5 µg/mL (≈ 21.3 µM) | soluble | 50 µg/mL (≈ 85.1 µM) | soluble | soluble | soluble | soluble | 100 µg/mL (≈ 170 µM) | soluble | soluble | 3.12 µg/mL (≈ 5.32 µM) | 25 µg/mL (≈ 42.6 µM) | soluble | 25 µg/mL (≈ 42.6 µM) | Insoluble |
| Fc1ccc(Nc2nc(Cl)nc(Nc3ccc(F)c(Cl)c3)n2)cc1Cl | 100 µg/mL (≈ 248 µM) | soluble | 50 µg/mL (≈ 124 µM) | soluble | soluble | – | – | 100 µg/mL (≈ 248 µM) | soluble | soluble | 100 µg/mL (≈ 248 µM) | 100 µg/mL (≈ 248 µM) | – | 100 µg/mL (≈ 248 µM) | soluble |
| CN[C@@H]1[C@H](O[C@H]2[C@H](O[C@H]3[C@H](O)[C@@H](O)[C@H](N=C(N)N)[C@@H](O)[C@@H]3N=C(N)N)O[C@@H](C)[C@]2(O)C=O)O[C@@H](CO)[C@H](O)[C@H]1O [STREPTOMYCIN] | 6.25 µg/mL (≈ 10.7 µM) | – | 3.12 µg/mL (≈ 5.37 µM) | – | – | – | – | 6.25 µg/mL (≈ 10.7 µM) | – | – | 3.12 µg/mL (≈ 5.37 µM) | 3.12 µg/mL (≈ 5.37 µM) | – | 6.25 µg/mL (≈ 10.7 µM) | – |
| O=[N+]([O-])c1ccc(-c2csc(Nc3nc(Nc4ccc(F)cc4)nc(Nc4ccc(F)cc4)n3)n2)cc1 | 25 µg/mL (≈ 48.2 µM) | soluble | 50 µg/mL (≈ 96.4 µM) | soluble | soluble | soluble | Insoluble | 50 µg/mL (≈ 96.4 µM) | soluble | soluble | 25 µg/mL (≈ 48.2 µM) | 100 µg/mL (≈ 193 µM) | soluble | 50 µg/mL (≈ 96.4 µM) | Insoluble |
| Fc1ccc(Nc2nc(Nc3ccc(F)c(Cl)c3)nc(Nc3nc(-c4ccc(Cl)cc4)cs3)n2)cc1Cl | 12.5 µg/mL (≈ 21.7 µM) | soluble | 25 µg/mL (≈ 43.3 µM) | soluble | soluble | soluble | soluble | 50 µg/mL (≈ 86.7 µM) | soluble | soluble | 25 µg/mL (≈ 43.3 µM) | 100 µg/mL (≈ 173 µM) | soluble | 12.5 µg/mL (≈ 21.7 µM) | Insoluble |
| O=[N+]([O-])c1ccc(Nc2nc(Cl)nc(Nc3ccc([N+](=O)[O-])cc3)n2)cc1 | 50 µg/mL (≈ 129 µM) | Insoluble | 50 µg/mL (≈ 129 µM) | soluble | soluble | Insoluble | soluble | 100 µg/mL (≈ 258 µM) | soluble | soluble | 25 µg/mL (≈ 64.5 µM) | 100 µg/mL (≈ 258 µM) | soluble | 100 µg/mL (≈ 258 µM) | soluble |
| O=[N+]([O-])c1ccc(Nc2nc(Nc3ccc([N+](=O)[O-])cc3)nc(Nc3nc(-c4ccc([N+](=O)[O-])cc4)cs3)n2)cc1 | 6.25 µg/mL (≈ 10.9 µM) | soluble | 3.12 µg/mL (≈ 5.46 µM) | soluble | soluble | soluble | Insoluble | 6.25 µg/mL (≈ 10.9 µM) | soluble | soluble | 3.12 µg/mL (≈ 5.46 µM) | 6.25 µg/mL (≈ 10.9 µM) | Insoluble | 6.25 µg/mL (≈ 10.9 µM) | Insoluble |
| Fc1ccc(Nc2nc(Cl)nc(Nc3ccc(F)cc3)n2)cc1 | 50 µg/mL (≈ 150 µM) | soluble | 100 µg/mL (≈ 300 µM) | soluble | Insoluble | Insoluble | Insoluble | 50 µg/mL (≈ 150 µM) | soluble | soluble | 100 µg/mL (≈ 300 µM) | 50 µg/mL (≈ 150 µM) | Insoluble | 50 µg/mL (≈ 150 µM) | soluble |
| O=[N+]([O-])c1ccc(-c2csc(Nc3nc(Nc4ccc(Cl)cc4)nc(Nc4ccc(Cl)cc4)n3)n2)cc1 | 12.5 µg/mL (≈ 22.7 µM) | soluble | 25 µg/mL (≈ 45.3 µM) | soluble | soluble | soluble | Insoluble | 25 µg/mL (≈ 45.3 µM) | soluble | soluble | 6.25 µg/mL (≈ 11.3 µM) | 12.5 µg/mL (≈ 22.7 µM) | Insoluble | 6.25 µg/mL (≈ 11.3 µM) | Insoluble |
| Nc1nc(-c2ccc(Cl)cc2)cs1 | – | soluble | – | soluble | soluble | soluble | soluble | – | soluble | soluble | – | – | soluble | – | Insoluble |
| Nc1nc(-c2ccc([N+](=O)[O-])cc2)cs1 | – | soluble | – | soluble | soluble | soluble | soluble | – | soluble | soluble | – | – | soluble | – | Insoluble |
| Clc1ccc(Nc2nc(Cl)nc(Nc3ccc(Cl)cc3)n2)cc1 | 25 µg/mL (≈ 68.2 µM) | – | 50 µg/mL (≈ 136 µM) | soluble | Insoluble | Insoluble | Insoluble | 50 µg/mL (≈ 136 µM) | Insoluble | soluble | 50 µg/mL (≈ 136 µM) | 100 µg/mL (≈ 273 µM) | soluble | 25 µg/mL (≈ 68.2 µM) | soluble |
| O=[N+]([O-])c1ccc(-c2csc(Nc3nc(Nc4ccc(Br)cc4)nc(Nc4ccc(Br)cc4)n3)n2)cc1 | 100 µg/mL (≈ 156 µM) | soluble | 100 µg/mL (≈ 156 µM) | soluble | soluble | soluble | soluble | 100 µg/mL (≈ 156 µM) | soluble | soluble | 50 µg/mL (≈ 78.1 µM) | 100 µg/mL (≈ 156 µM) | Insoluble | 100 µg/mL (≈ 156 µM) | soluble |
| Clc1nc(Nc2ccc(Br)cc2)nc(Nc2ccc(Br)cc2)n1 | 100 µg/mL (≈ 220 µM) | soluble | 100 µg/mL (≈ 220 µM) | soluble | soluble | Insoluble | soluble | 100 µg/mL (≈ 220 µM) | Insoluble | soluble | 100 µg/mL (≈ 220 µM) | 100 µg/mL (≈ 220 µM) | Insoluble | 100 µg/mL (≈ 220 µM) | soluble |
